Data on twelve molecules can be found in ChEMBL document CHEMBL3734723, “Synthesis and anticancer activity of 6-heteroarylcoumarins” (2015).

Common to all, as to type: functional
The nature of assay [1]: Cytotoxicity against human UO31 cells assessed as cell growth at 10 uM incubated for 48 hrs by sulforhodamine B assay. The conditions noted are these: UO-31, 48 h, read-out: Activity. A general note: The SRB assay estimates cell density from bound dye.
In assay [2] the test system is NCI-H522. The assay can be described thus: Cytotoxicity against human NCI-H522 cells assessed as cell growth at 10 uM incubated for 48 hrs by sulforhodamine B assay. The conditions noted are these: NCI-H522, 48 h, read-out: Activity.
Assay [3] can be described thus: Cytotoxicity against human OVCAR8 cells assessed as cell growth at 10 uM incubated for 48 hrs by sulforhodamine B assay. The settings on record: OVCAR-8, 48 h, read-out: Activity.
Assay [4] is described as follows: Cytotoxicity against human RPMI8226 cells assessed as cell growth at 10 uM incubated for 48 hrs by sulforhodamine B assay. The settings on record: RPMI-8226, 48 h, read-out: Activity.
For assay [5], the system named is SK-MEL-5. The experiment in a line: Cytotoxicity against human SK-MEL-5 cells assessed as cell growth at 10 uM incubated for 48 hrs by sulforhodamine B assay. The settings on record: SK-MEL-5, 48 h, read-out: Activity.
A short description of assay [6]: Cytotoxicity against human SF295 cells assessed as cell growth at 10 uM incubated for 48 hrs by sulforhodamine B assay. The conditions noted are these: SF-295, 48 h, read-out: Activity.
Assay [7] in a line: Cytotoxicity against human UACC62 cells assessed as cell growth at 10 uM incubated for 48 hrs by sulforhodamine B assay. The conditions noted are these: UACC-62, 48 h, read-out: Activity.
The nature of assay [8]: Cytotoxicity against human PC3 cells assessed as cell growth at 10 uM incubated for 48 hrs by sulforhodamine B assay. The conditions noted are these: PC-3, 48 h, read-out: Activity.
Assay [9] relates to T47D. The experiment in a line: Cytotoxicity against human T47D cells assessed as cell growth at 10 uM incubated for 48 hrs by sulforhodamine B assay. The settings on record: read-out: Activity.
Assay [10] has as its system CCRF-CEM. The assay can be described thus: Cytotoxicity against human CCRF-CEM cells assessed as cell growth at 10 uM incubated for 48 hrs by sulforhodamine B assay. The conditions noted are these: read-out: Activity.
Assay [11] relates to SR. The assay can be described thus: Cytotoxicity against human SR cells assessed as cell growth at 10 uM incubated for 48 hrs by sulforhodamine B assay. The conditions noted are these: read-out: Activity.
Assay [12] in a line: Cytotoxicity against human HL-60(TB) cells assessed as cell growth at 10 uM incubated for 48 hrs by sulforhodamine B assay. The settings on record: HL-60, 48 h, read-out: Activity.
Assay [13] in a line: Cytotoxicity against human HOP92 cells assessed as cell growth at 10 uM incubated for 48 hrs by sulforhodamine B assay. The conditions noted are these: HOP-92, 48 h, read-out: Activity.
Assay [14] relates to K562. The assay can be described thus: Cytotoxicity against human K562 cells assessed as cell growth at 10 uM incubated for 48 hrs by sulforhodamine B assay. The conditions noted are these: K562, 48 h, read-out: Activity.
Assay [15] deals with MDA-MB-468. The assay can be described thus: Cytotoxicity against human MDA-MB-468 cells assessed as cell growth at 10 uM incubated for 48 hrs by sulforhodamine B assay. The settings on record: MDA-MB-468, 48 h, read-out: Activity.
A short description of assay [16]: Cytotoxicity against human […] cells assessed as cell growth at 10 uM incubated for 48 hrs by sulforhodamine B assay. The settings on record: read-out: Activity.
Assay [17] can be described thus: Cytotoxicity against human MOLT4 cells assessed as cell growth at 10 uM incubated for 48 hrs by sulforhodamine B assay. The conditions noted are these: MOLT-4, 48 h, read-out: Activity.
For assay [18], the system named is NCI-H23. The experiment in a line: Cytotoxicity against human NCI-H23 cells assessed as cell growth at 10 uM incubated for 48 hrs by sulforhodamine B assay. The settings on record: NCI-H23, 48 h, read-out: Activity.
Assay [19] is described as follows: Cytotoxicity against human HCT15 cells assessed as cell growth at 10 uM incubated for 48 hrs by sulforhodamine B assay. The settings on record: HCT-15, 48 h, read-out: Activity.
Assay [20] concerns NCI-H460. The experiment in a line: Cytotoxicity against human NCI-H460 cells assessed as cell growth at 10 uM incubated for 48 hrs by sulforhodamine B assay. The conditions noted are these: NCI-H460, 48 h, read-out: Activity.
Assay [21] has as its system MDA-MB-435. The experiment in a line: Cytotoxicity against human MDA-MB-435 cells assessed as cell growth at 10 uM incubated for 48 hrs by sulforhodamine B assay. The conditions noted are these: MDA-MB-435, 48 h, read-out: Activity.
Assay [22] concerns 786-0. The experiment in a line: Cytotoxicity against human 786-0 cells assessed as cell growth at 10 uM incubated for 48 hrs by sulforhodamine B assay. The conditions noted are these: 786-0, 48 h, read-out: Activity.
Assay [23] can be described thus: Cytotoxicity against human OVCAR4 cells assessed as cell growth at 10 uM incubated for 48 hrs by sulforhodamine B assay. The settings on record: OVCAR-4, 48 h, read-out: Activity.
A short description of assay [24]: Cytotoxicity against human HCT116 cells assessed as cell growth at 10 uM incubated for 48 hrs by sulforhodamine B assay. The settings on record: HCT-116, 48 h, read-out: Activity.
Assay [25] can be described thus: Cytotoxicity against human OVCAR3 cells assessed as cell growth at 10 uM incubated for 48 hrs by sulforhodamine B assay. The settings on record: OVCAR-3, 48 h, read-out: Activity.
For assay [26], the system named is A549. The assay can be described thus: Cytotoxicity against human A549 cells assessed as cell growth at 10 uM incubated for 48 hrs by sulforhodamine B assay. The settings on record: A549, 48 h, read-out: Activity.
In assay [27] the test system is ACHN. The experiment in a line: Cytotoxicity against human ACHN cells assessed as cell growth at 10 uM incubated for 48 hrs by sulforhodamine B assay. The conditions noted are these: read-out: Activity.
Assay [28] is described as follows: Cytotoxicity against human HCC2998 cells assessed as cell growth at 10 uM incubated for 48 hrs by sulforhodamine B assay. The settings on record: HCC 2998, 48 h, read-out: Activity.
Assay [29] in a line: Cytotoxicity against human LOXIMVI cells assessed as cell growth at 10 uM incubated for 48 hrs by sulforhodamine B assay. The settings on record: LOX IMVI, read-out: Activity.
The subject of assay [30] is EKVX. The assay can be described thus: Cytotoxicity against human EKVX cells assessed as cell growth at 10 uM incubated for 48 hrs by sulforhodamine B assay. The settings on record: read-out: Activity.
Assay [31] deals with KM12. The assay can be described thus: Cytotoxicity against human KM12 cells assessed as cell growth at 10 uM incubated for 48 hrs by sulforhodamine B assay. The conditions noted are these: KM12, 48 h, read-out: Activity.
Assay [32] can be described thus: Cytotoxicity against human NCI-ADR-RES cells assessed as cell growth at 10 uM incubated for 48 hrs by sulforhodamine B assay. The conditions noted are these: read-out: Activity.
For assay [33], the system named is MCF7. The experiment in a line: Cytotoxicity against human MCF7 cells assessed as cell growth at 10 uM incubated for 48 hrs by sulforhodamine B assay. The conditions noted are these: MCF7, 48 h, read-out: Activity.

`Cc1c(O)c(-c2ccnc(S)n2)cc2c3c(c(=O)oc12)CCCC3`: the growth at 10 µM in assay [1] is 60.8%; in assay [2] it was 68.8%; in assay [3] it was 64.5%.

In the case of `CCCc1cc(=O)oc2c(C)c(O)c(-c3ccc4c(=O)n(-c5ccccc5)nc-4[nH]3)cc12`, the growth at 10 µM amounted to 65.8% in assay [4], 67.1% in assay [5], 69.1% in assay [6] and 60.6% in assay [7].

In the case of `Cc1c(O)c(-c2cc3ccccc3[nH]2)cc2c3c(c(=O)oc12)CCC3`, the growth at 10 µM in assay [8] turned out to be 67%; in assay [4], 51.8%; in assay [9] it was 69.8%; in [2], 61.6%; in [7], 59.1%.

`CCCCc1cc(=O)oc2c(C)c(O)c(-c3ccnc(NC#N)n3)cc12`: the growth at 10 µM in [10] was -58.3%.

As to `CCCCc1cc(=O)oc2c(C)c(O)c(-c3ccnc4nnnn34)cc12`, the growth at 10 µM in assay [1] worked out at 89.4%.

Turning to `Cc1c(O)c(-c2ccnc(N)n2)cc2c3c(c(=O)oc12)CCC3`, the growth at 10 µM was -73.3% in assay [10]; 4.79% in [11]; 55.6% in [4]; -34.4% in assay [12]; -5.18% in [13].

Regarding `Cc1cc(=O)oc2c(C)c(O)c(-c3cc4ccccc4[nH]3)cc12`, the growth at 10 µM in [8] was found to be 66.5%; in assay [11], 65.2%; in [4] it was 43.8%; in assay [14], 59.3%; in assay [5], 48.5%; in assay [15] it was 64.3%. Moreover, the growth at 10 µM came out at 51.8% in assay [1], 58.2% in assay [2] and 48.8% in [7].

With `CCCc1cc(=O)oc2c(C)c(O)c(-c3ccc(C#N)c(=O)[nH]3)cc12`, the growth at 10 µM in assay [16] stood at 90%.

Take `Cc1cc(=O)oc2c(C)c(O)c(-c3cc[nH]n3)cc12`: the growth at 10 µM in assay [10] was -68.5%; in [4], 64.3%; in [12] it was -10.9%.

Regarding `Cc1cc(=O)oc2c(C)c(O)c(-c3ccnc4nc5ccccc5n34)cc12`, in assay [10], the growth at 10 µM was -81.9%.

Take `Cc1c(O)c(-c2cc[nH]n2)cc2c3c(c(=O)oc12)CCC3`: the growth at 10 µM in assay [10] is -69.3%; in assay [11], 16.5%; in assay [17], -36%; in assay [12] it was -20.4%; in assay [13], 65.7%.

In the case of `Cc1c(O)c(-c2cc3ccccc3[nH]2)cc2c3c(c(=O)oc12)CCCC3`, the growth at 10 µM in assay [18] was found to be 31.5%; in assay [19] it was 67.3%; in assay [8], 52.8%; in assay [11], 60.2%; in [4], 38.7%; in [20], 47.8%. The growth at 10 µM in assay [21] came out at 65.3%; in [22] it was 69.9%; in assay [14], 44.3%; in assay [5] it was 52.2%; in assay [23], 61.6%; in assay [16], 68.8%. Further, the growth at 10 µM in [24] was 51.7%; in assay [25] it was 64.6%; in assay [26], 58.5%; in assay [17] it was 62.2%; in assay [15] it was 41.6%; in [6], 65.7%. The growth at 10 µM is 66.9% in assay [27]; 44% in [1]; 39.6% in assay [2]; 53.7% in [28]; 68.2% in assay [29]; 48.2% in [7]. The growth at 10 µM in assay [30] amounted to 60.7%; in [13], 36.7%; in assay [31] it was 64.8%; in assay [32], 49.2%; in [33], 67.3%.
